# Test results from paper PMC7154662, “Structural Insight into IAPP‐Derived Amyloid Inhibitors and Their Mechanism of Action” (Angewandte Chemie (International Ed. in English), 2020).
# Non-standard residues stand in square brackets, D forms with d. Residues, ends and D or L forms follow the SMILES beside them. NMeI = CC[C@H](C)[C@H](NC)C(=O)O; Sar = CNCC(=O)O
# Molecular target: T1, R3-GI (Homo sapiens, UniProt P10997, N54R/S52R/S53R)
# T1 construct: linking the two hot segments IAPP(8–18) and IAPP(22–28) in native or N‐methylated form; made in house; host or cells: chemical solid phase peptide synthesis (no expression host)
# T1 sequence (P10997 41-61 S52R/S53R/N54R): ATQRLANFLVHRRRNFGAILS
# Assay: Fluorescence titration: self-association of Fluos-R3-GI with R3-GI
# Conditions: Fluos-R3-GI 5 nM titrated with R3-GI; 10 mM sodium phosphate buffer, pH 7.4 (1% HFIP); room temperature, 2-5 min after solution preparation; excitation 492 nm; means (±SEM) from three binding curves; read-out: app. Kd for R3-GI self-association
# Text: Figure 1 R3‐GI self‐assembly. […] On the right, the binding curve is shown. The estimated app. […] Data are means (±SEM) from three binding curves. […] Scale bar: 10 μm.
# The sampling of the 12 replicas was combined resulting in the ensemble of conformations were the statistical weight of each conformation is obtained by a simple reweighting scheme based on the final metadynamics bias B. The weight of a conformation X is given by w=exp(+B(X)/kBT), consistently with the quasi static behavior at convergence of well- […]
# Coarse-grained modelling of R3-GI oligomers
# To investigate the interaction of the peptides with each other, over 100 μs of coarse grain simulations were performed using GROMACS. An initial peptide model was created based on a representative structure from the atomistic ensemble. The Martini 2.2 force field was used to describe the peptide interaction together with the standard Martini water model.
# Additionally, an elastic network was applied to conserve structural information. […]
# Fluorescence spectroscopic titrations
# A JASCO FP-6500 fluorescence spectrophotometer was used and titrations were performed as previously described. Briefly, excitation was at 492 nm and fluorescence emission spectra were recorded between 500 and 600 nm. […]
# temperature within 2-5 min following solution preparation. The determined app. […]
smiles,measurement,value
CC[C@H](C)[C@@H](C(=O)N[C@@H](CC(C)C)C(=O)N[C@@H](CO)C(N)=O)N(C)C(=O)[C@H](C)NC(=O)CN(C)C(=O)[C@H](Cc1ccccc1)NC(=O)[C@H](CC(N)=O)NC(=O)[C@H](CCCNC(=N)N)NC(=O)[C@H](CCCNC(=N)N)NC(=O)[C@H](CCCNC(=N)N)NC(=O)[C@H](Cc1c[nH]cn1)NC(=O)[C@@H](NC(=O)[C@H](CC(C)C)NC(=O)[C@H](Cc1ccccc1)NC(=O)[C@H](CC(N)=O)NC(=O)[C@H](C)NC(=O)[C@H](CC(C)C)NC(=O)[C@H](CCCNC(=N)N)NC(=O)[C@H](CCC(N)=O)NC(=O)[C@@H](NC(=O)[C@H](C)N)[C@@H](C)O)C(C)C [R3-GI] (H-ATQRLANFLVHRRRNF[Sar]A[NMeI]LS-NH2),Kd,77.1 nM
